Measured values taken from US11090304B2 (Amgen Inc., priority 2018, dated 2021).

Legend:
[1] = target: GDP-bound KRAS protein (aa 1-169), containing both G12C and C118A amino acid substitutions (Homo sapiens, UniProt P01116, C118A/G12C); test: Coupled nucleotide exchange assay (SOS-mediated, AlphaScreen); type: biochemical; conditions: 5 min compound pre-incubation
[2] = system: Phosphorylation of ERK1/2 in MIA PaCa-2 cells; test: Phospho-ERK1/2 MSD assay in MIA PaCa-2 cells; type: cell-based; conditions: Homo sapiens, MIA PaCa-2, 2 h, read-out: p-ERK IC50 (2 h; MIA PaCa-2), 2 h compound treatment
Outline: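 MIA PaCa-2 or A549 cells were treated with a compound dose-response titration for 2 or 4 h at 37 °C, then stimulated with 10 ng/mL EGF for 10 min. Phospho-ERK1/2 in RIPA lysates was measured by MSD whole-cell lysate immunoassay, and IC50 came from a 4-parameter logistic fit.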

GDP-bound KRAS protein (aa 1-169), containing both G12C and C118A amino acid substitutions, sequence (P01116 1-169 isoform P01116-2 G12C/C118A): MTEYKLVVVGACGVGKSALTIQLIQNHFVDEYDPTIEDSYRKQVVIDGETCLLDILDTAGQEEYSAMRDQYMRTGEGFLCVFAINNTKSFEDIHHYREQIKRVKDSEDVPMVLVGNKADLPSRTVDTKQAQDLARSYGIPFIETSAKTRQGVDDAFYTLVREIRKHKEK

Compound	Coupled exchange IC50 (5 min) [1]	IC50 [2]	IC50 ([1]; read-out: Coupled exchange IC50 (5 min))
C=CC(=O)N1CCN(c2nc(=O)n(-c3nccnc3C(C)C)c3nc(-c4c(O)cccc4F)c(Cl)cc23)[C@@H](C)C1 [Example 54-21, 6-chloro-7-(2-fluoro-6-hydroxyphenyl)-4-((2S)-2-methyl-4-(2-propenoyl)-1-piperazinyl)-1-(3-(2-propanyl)-2-pyrazinyl) pyrido[2,3-d]pyrimidin-2(1H)-one]	1.67 | nda μM	2.48 µM	
C=CC(=O)N1CCN(c2nc(=O)n(-c3ccnn3C(C)C)c3nc(-c4c(O)cccc4F)c(Cl)cc23)[C@@H](C)C1 [Example 54-25, 6-chloro-7-(2-fluoro-6-hydroxy-phenyl)-4-((2S)-2-methyl-4-(2-propenoyl)-1-piperazinyl)-1-(1-(2-propanyl)-1H-pyrazol-5-yl)pyrido[2,3-d]pyrimidin-2(1H)-one]		0.218 µM	0.164 µM
C=CC(=O)N1CCN(c2nc(=O)n(-c3ccnn3C3CCC3)c3nc(-c4c(O)cccc4F)c(Cl)cc23)[C@@H](C)C1 [Example 54-28, 6~chloro-1-(1-cyclobutyl-1H-pyrazol-5-yl)-7-(2-fluoro-6-hydroxyphenyl)-4-((2S)-2-methyl-4-(2-propenoyl)-1-piperazinyl) pyrido[2,3-d]pyrimidin-2(1H)-one]	0.19 | nda μM	0.245 µM	
C=CC(=O)N1CCN(c2nc(=O)n(-c3ccnn3C3CCC3)c3nc(-c4ccccc4F)c(Cl)cc23)[C@@H](C)C1 [Example 54-29, 6-chloro-1-(1-cyclobutyl-1H-pyrazol-5-yl)-7-(2-fluorophenyl)-4-((2S)-2-methyl-4-(2-propenoyl)-1-piperazinyl) pyrido[2,3-d]pyrimidin-2(1H)-one]	0.406 | nda μM	0.717 µM	
C=CC(=O)N1CCN(c2nc(=O)n(-c3ccccc3Cl)c3nc(-c4c(O)cccc4F)c(Cl)cc23)[C@@H](C)C1 [Example 54-35, 6-chloro-1-(2-chlorophenyl)-7-(2-fluoro-6-hydroxyphenyl)-4-((2S)-2-methyl-4-(2-propenoyl)-1-piperazinyl) pyrido[2,3-d]pyrimidin-2(1H)-one]	0.582 | nda μM	0.383 µM	
C=CC(=O)N1CCN(c2nc(=O)n(-c3nccnc3CC)c3nc(-c4c(O)cccc4F)c(Cl)cc23)[C@@H](C)C1 [Example 54-37, 6-chloro-1-(3-ethyl-2-pyrazinyl)-7-(2-fluoro-6-hydroxy-phenyl)-4-((2S)-2-methyl-4-(2-propenoyl)-1-piperazinyl) pyrido[2,3-d]pyrimidin-2(1H)-one]	0.304 | nda μM	0.227 µM	
C=CC(=O)N1CCN(c2nc(=O)n(-c3nccnc3CC)c3nc(-c4ccccc4F)c(Cl)cc23)[C@@H](C)C1 [Example 54-38, 6-chloro-1-(3-ethyl-2-pyrazinyl)-7-(2-fluorophenyl)-4-((2S)-2-methyl-4-(2-propenoyl)-1-piperazinyl) pyrido[2,3-d]pyrimidin-2(1H)-one]	0.651 | nda μM	0.297 µM	
C=CC(=O)N1CCN(c2nc(=O)n(-c3ccccc3N(C)C)c3nc(-c4c(O)cccc4F)c(Cl)cc23)[C@@H](C)C1 [Example 54-42, 6-chloro-1-(2-(dimethylamino)phenyl)-7-(2-fluoro-6-hydroxyphenyl)-4-((2S)-2-methyl-4-(2-propenoyl)-1-piperazinyl) pyrido[2,3-d]pyrimidin-2(1H)-one]	0.79 | nda μM	0.322 µM	
C=CC(=O)N1CCN(c2nc(=O)n(-c3nonc3C(C)C)c3nc(-c4c(O)cccc4F)c(Cl)cc23)[C@@H](C)C1 [Example 54-52, 6-chloro-7-(2-fluoro-6-hydroxyphenyl)-4-((2S)-2-methyl-4-(2-propenoyl)-1-piperazinyl)-1-(4-(2-propanyl)-1,2,5-oxadiazol-3-yl)pyrido[2,3-d]pyrimidin-2(1H)-one]	0.445 | nda μM	0.666 µM	
C=CC(=O)N1CCN(c2nc(=O)n(-c3ncc(C#N)cc3CC)c3nc(-c4c(O)cccc4F)c(Cl)cc23)[C@@H](C)C1 [Example 54-53, 6-(6-chloro~7-(2-fluoro-6-hydroxyphenyl)-4-((2S)-2-methyl-4-(2-propenoyl)-1-piperazinyl)-2-oxopyrido[2,3-d]pyrimidin-1(2H)-yl)-5-ethyl-3-pyridine-carbonitrile]	0.193 | nda μM	0.593 µM	
C=CC(=O)N1CCN(c2nc(=O)n(-c3cncnc3C3(C)CC3)c3nc(-c4ccccc4F)c(Cl)cc23)[C@@H](C)C1 [Example 54-54, 6-chloro-7-(2-fluorophenyl)-1-(4-(1-methyl-cyclopropyl)-5-pyrimidinyl)-4-((2S)-2-methyl-4-(2-propenoyl)-1-piperazinyl) pyrido[2,3-d]pyrimidin-2(1H)-one]	0.377 | nda μM	0.36 µM	
C=CC(=O)N1CCN(c2nc(=O)n(-c3cncnc3C3(C)CC3)c3nc(-c4c(O)cccc4F)c(Cl)cc23)[C@@H](C)C1 [Example 54-55, 6-chloro-7-(2-fluoro-6-hydroxyphenyl)-1-(4-(1-methyl-cyclopropyl)-5-pyrimidinyl)-4-((2S)-2-methyl-4-(2-propenoyl)-1-piperazinyl) pyrido[2,3-d]pyrimidin-2(1H)-one]	0.133 | nda μM	0.578 µM	
C=CC(=O)N1CCN(c2nc(=O)n(-c3ccccc3-c3ccccc3)c3nc(-c4c(O)cccc4F)c(Cl)cc23)[C@@H](C)C1 [Example 54-74, 1-([biphenyl]-2-yl)-6-chloro-7-(2-fluoro-6-hydroxyphenyl)-4-((2S)-2-methyl-4-(2-propenoyl)-1-piperazinyl) pyrido[2,3-d]pyrimidin-2(1H)-one]	0.582 | nda μM	0.926 µM	

The remaining compounds from weak to strong by IC50 [2], led by results:

Coupled exchange IC50 (5 min) [1]	IC50 [2]	Compound	IC50 ([1]; read-out: Coupled exchange IC50 (5 min))
0.105 | nda μM	0.22 µM	C=CC(=O)N1CCN(c2nc(=O)n(-c3cncnc3C(C)C)c3nc(-c4c(O)cccc4F)c(Cl)cc23)[C@@H](C)C1 [Example 54-26, 6-chloro-7-(2-fluoro-6-hydroxy-phenyl)-4-((2S)-2-methyl-4-(2-propenoyl)-1-piperazinyl)-1-(4-(2-propanyl)-5-pyrimidinyl) pyrido[2,3-d]pyrimidin-2(1H)-one]	
0.265 | nda μM	0.204 µM	C=CC(=O)N1CCN(c2nc(=O)n(-c3ccccc3C(C)C)c3nc(-c4cc(OC(F)F)ccc4F)c(Cl)cc23)[C@@H](C)C1 [Example 54-51, 6-chloro-7-(5-(difluoromethoxy)-2-fluorophenyl)-4-((2S)-2-methyl-4-(2-propenoyl)-1-piperazinyl)-1-(2-(2-propanyl)phenyl)pyrido [2,3-d]pyrimidin-2(1H)-one]	
0.108 | nda μM	0.183 µM	C=CC(=O)N1CCN(c2nc(=O)n(-c3c(C(C)C)n[nH]c3C(C)C)c3nc(-c4ccccc4F)c(Cl)cc23)[C@@H](C)C1 [Example 54-72, 6-chloro-1-(3,5-di(2-propanyl)-1H-pyrazol-4-yl)-7-(2-fluorophenyl)-4-((2S)-2-methyl-4-(2-propenoyl)-1-piperazinyl) pyrido[2,3-d]pyrimidin-2(1H)-one]	
0.174 | nda μM	0.164 µM	C=CC(=O)N1CCN(c2nc(=O)n(-c3c(C)cnn3C(C)C)c3nc(-c4ccc(F)cc4F)c(Cl)cc23)[C@@H](C)C1 [Example 54-71, 6-chloro-7-(2,4-difluorophenyl)-1-(4-methyl-1-(2-propanyl)-1H-pyrazol-5-yl)-4-((2S)-2-methyl-4-(2-propenoyl)-1-piperazinyl) pyrido[2,3-d]pyrimidin-2(1H)-one]	
0.149 | nda μM	0.158 µM	C=CC(=O)N1CCN(c2nc(=O)n(-c3ccncc3C(C)C)c3nc(-c4c(O)cccc4F)c(Cl)cc23)[C@@H](C)C1 [Example 54-36, 6-chloro-7-(2-fluoro-6-hydroxy-phenyl)-4-((2S)-2-methyl-4-(2-propenoyl)-1-piperazinyl)-1-(3-(2-propanyl)-4-pyridinyl) pyrido[2,3-d]pyrimidin-2(1H)-one]	
0.218 | nda μM	0.158 µM	C=CC(=O)N1CCN(c2nc(=O)n(-c3ccccc3C(C)C)c3nc(-c4ccc(F)cc4O)c(Cl)cc23)[C@@H](C)C1 [Example 54-77, 6-chloro-7-(4-fluoro-2-hydroxy-phenyl)-4-((2S)-2-methyl-4-(2-propenoyl)-1-piperazinyl)-1-(2-(2-propanyl)phenyl)pyrido [2,3-d]pyrimidin-2(1H)-one]	
0.325 | nda μM	0.097 µM	C=CC(=O)N1CCN(c2nc(=O)n(-c3ccccc3CC)c3nc(-c4c(O)cccc4F)c(Cl)cc23)[C@@H](C)C1 [Example 54-34, 6-chloro-1-(2-ethylphenyl)-7-(2-fluoro-6-hydroxyphenyl)-4-((2S)-2-methyl-4-(2-propenoyl)-1-piperazinyl) pyrido[2,3-d]pyrimidin-2(1H)-one]	
0.087 | nda μM	0.081 µM	C=CC(=O)N1CCN(c2nc(=O)n(-c3c(C(C)C)ccnc3C)c3nc(-c4ccccc4F)c(Cl)cc23)[C@@H](C)C1 [Example 54-18, 6-chloro-7-(2-fluorophenyl)-1-(2-methyl-4-(2-propanyl)-3-pyridinyl)-4-((2S)-2-methyl-4-(2-propenoyl)-1-piperazinyl) pyrido[2,3-d]pyrimidin-2(1H)-one]	
0.062 | nda μM	0.064 µM	C=CC(=O)N1CCN(c2nc(=O)n(-c3c(OC)cccc3C(C)C)c3nc(-c4c(O)cccc4F)c(Cl)cc23)[C@@H](C)C1 [Example 54-73, 6-chloro-7-(2-fluoro-6-hydroxy-phenyl)-1-(2-methoxy-6-(2-propanyl)phenyl)-4-((2S)-2-methyl-4-(2-propenoyl)-1-piperazinyl) pyrido[2,3-d]pyrimidin-2(1H)-one]	
